According to PubChem BioAssay AID220 (DTP/NCI, 2004):
Values joined by “and” are separate entries in the source; they are usually repeats but may differ in a detail not shown here. Identical values can stand only once. Inconclusive results are not listed.

Tested on: CD8F1 mice, subcutaneous mammary adenocarcinoma, T/C%
Assay: NCI In Vivo Anticancer Drug Screen. Data for tumor model Mammary Adenocarcinoma CD8F1 (subcutaneous) in CD8F1
Conditions: higher = larger tumour
Procedure, shortened: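 Antitumor activity is assessed in transplantable-tumor mice by comparing the treated group with a vehicle-treated control group. Survival or tumor size serves as the measure, reported as T divided by C.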

[1] = endpoint: median tumor weight change, dose: 62.5 mg/kg/injection, schedule: Q01DX001 (ip), vehicle: saline with Tween-80
[2] = endpoint: median tumor weight change, dose: 125.0 mg/kg/injection, schedule: Q01DX001 (ip), vehicle: saline with Tween-80
[3] = endpoint: median tumor weight change, dose: 250.0 mg/kg/injection, schedule: Q01DX001 (ip), vehicle: saline with Tween-80
[4] = endpoint: median tumor weight change, dose: 500.0 mg/kg/injection, schedule: Q01DX001 (ip), vehicle: saline with Tween-80

## CC1CCC(NC(=O)N(CCCl)N=O)CC1 (stereo unspecified)
endpoint: mean tumor weight, dose: 6.25 mg/kg/injection, schedule: Q01DX009 (ip), vehicle: saline + alcohol
  T/C: 108 % of control
endpoint: mean tumor weight, dose: 6.25 mg/kg/injection, schedule: Q01DX009 (ip), vehicle: saline
  T/C: 214 % of control
endpoint: mean tumor weight, dose: 12.5 mg/kg/injection, schedule: Q01DX009 (ip), vehicle: saline + alcohol
  T/C: 27 % of control
endpoint: mean tumor weight, dose: 12.5 mg/kg/injection, schedule: Q01DX009 (ip), vehicle: saline
  T/C: 50 % of control
endpoint: mean tumor weight, dose: 12.5 mg/kg/injection, schedule: Q07DX006 (ip), vehicle: saline + alcohol
  T/C: 63 % of control
endpoint: mean tumor weight, dose: 12.5 mg/kg/injection, schedule: Q07DX006 (ip), vehicle: saline
  T/C: 24 % of control
endpoint: mean tumor weight, dose: 12.5 mg/kg/injection, schedule: Q07DX007 (ip), vehicle: saline + alcohol
  T/C: 124 % of control
endpoint: mean tumor weight, dose: 25.0 mg/kg/injection, schedule: Q01DX009 (ip), vehicle: saline
  T/C: 47 % of control
endpoint: mean tumor weight, dose: 25.0 mg/kg/injection, schedule: Q07DX006 (ip), vehicle: saline + alcohol
  T/C: 28 % of control
endpoint: mean tumor weight, dose: 25.0 mg/kg/injection, schedule: Q07DX006 (ip), vehicle: saline
  T/C: 48 % of control
endpoint: mean tumor weight, dose: 25.0 mg/kg/injection, schedule: Q07DX007 (ip), vehicle: saline + alcohol
  T/C: 100 % of control
endpoint: mean tumor weight, dose: 50.0 mg/kg/injection, schedule: Q07DX006 (ip), vehicle: saline + alcohol
  T/C: 4 % of control
endpoint: mean tumor weight, dose: 50.0 mg/kg/injection, schedule: Q07DX006 (ip), vehicle: saline
  T/C: 7 % of control
endpoint: mean tumor weight, dose: 50.0 mg/kg/injection, schedule: Q07DX007 (ip), vehicle: saline + alcohol
  T/C: 66 % of control
endpoint: median tumor weight (est.), dose: 2.0 mg/kg/injection, schedule: Q07DX005 (ip), vehicle: Klucel (hydroxypropylcellulose) (HPC)
  T/C: 98 % of control
endpoint: median tumor weight (est.), dose: 4.0 mg/kg/injection, schedule: Q07DX005 (ip), vehicle: Klucel (hydroxypropylcellulose) (HPC)
  T/C: 50 % of control
endpoint: median tumor weight (est.), dose: 8.0 mg/kg/injection, schedule: Q07DX005 (ip), vehicle: Klucel (hydroxypropylcellulose) (HPC)
  T/C: 38 % of control
endpoint: median tumor weight (est.), dose: 16.0 mg/kg/injection, schedule: Q07DX005 (ip), vehicle: Klucel (hydroxypropylcellulose) (HPC)
  T/C: 24 % of control
endpoint: median tumor weight change, dose: 8.0 mg/kg/injection, schedule: Q01DX001 (ip), vehicle: Klucel (hydroxypropylcellulose) (HPC)
  T/C: 98 % of control
endpoint: median tumor weight change, dose: 13.8 mg/kg/injection, schedule: Q01DX001 (ip), vehicle: Klucel (hydroxypropylcellulose) (HPC)
  T/C: 68 % of control
endpoint: median tumor weight change, dose: 16.0 mg/kg/injection, schedule: Q01DX001 (ip), vehicle: Klucel (hydroxypropylcellulose) (HPC)
  T/C: 78 % of control
endpoint: median tumor weight change, dose: 23.0 mg/kg/injection, schedule: Q01DX001 (ip), vehicle: Klucel (hydroxypropylcellulose) (HPC)
  T/C: 23 % of control
endpoint: median tumor weight change, dose: 32.0 mg/kg/injection, schedule: Q01DX001 (ip), vehicle: Klucel (hydroxypropylcellulose) (HPC)
  T/C: 42 % of control
endpoint: median tumor weight change, dose: 38.4 mg/kg/injection, schedule: Q01DX001 (ip), vehicle: Klucel (hydroxypropylcellulose) (HPC)
  T/C: -12 % of control
endpoint: median tumor weight change, dose: 64.0 mg/kg/injection, schedule: Q01DX001 (ip), vehicle: Klucel (hydroxypropylcellulose) (HPC)
  T/C: -13 % of control and -32 % of control

## CCCCCCCCCCCCCC#CC(=O)O
[1]
  T/C: 75 % of control and 95 % of control
[2]
  T/C: 68 % of control and 81 % of control
[3]
  T/C: 72 % of control
[4]
  T/C: 78 % of control

## O=C(O)C1Cc2nc[nH]c2CN1CO (stereo unspecified)
[2]
  T/C: 118 % of control
[3]
  T/C: 94 % of control
[4]
  T/C: 93 % of control
endpoint: median tumor weight change, dose: 1000.0 mg/kg/injection, schedule: Q01DX001 (ip), vehicle: saline with Tween-80
  T/C: 77 % of control
endpoint: median tumor weight change, dose: 2000.0 mg/kg/injection, schedule: Q01DX001 (ip), vehicle: saline with Tween-80
  T/C: 81 % of control

## O=C(Nc1nncs1)c1ccncc1
endpoint: median tumor weight (est.), dose: 25.0 mg/kg/injection, schedule: Q07DX005 (ip), vehicle: saline with Tween-80
  T/C: 151 % of control
endpoint: median tumor weight (est.), dose: 800.0 mg/kg/injection, schedule: Q07DX005 (ip), vehicle: saline with Tween-80
  T/C: 69 % of control

## O=[N+]([O-])c1ccc(Sc2ccncn2)c([N+](=O)[O-])c1
[1]
  T/C: 108 % of control
[2]
  T/C: 62 % of control

## CC1/C=C/C=C/CC/C=C/C=C/C=C/C=C/C(OC2OC(C)C(O)C(N)C2O)CC2OC(CC(O)C(O)CCC(O)CC(O)CC(O)CC(=O)OC(C)C(C)C1O)CC(O)C2C(=O)O (stereo unspecified)
endpoint: median tumor weight change, dose: 31.25 mg/kg/injection, schedule: Q01DX001 (ip), vehicle: saline with Tween-80
  T/C: 124 % of control
[1]
  T/C: 84 % of control

## COC(=O)c1cc2cc(C)c(C)c(C)c2c2ccc(C)cc12
endpoint: median tumor weight (est.), dose: 100.0 mg/kg/injection, schedule: Q07DX005 (ip), vehicle: saline with Tween-80
  T/C: 101 % of control
